Patent US9409905B2, “Antibacterial compounds and methods for use” (PTC THERAPEUTICS, INC., priority 2011, dated 2016)
≈ marks a conversion by molar mass, not a printed value.

Assays:
[1] = tested on: E. coli 25922; test: Antibacterial activity, microbroth dilution MIC (Table 1); format: cell-based, Escherichia coli; details: Escherichia coli; microbroth dilution; control Gram-negative E. coli 25922 strain; read-out: MIC, 25922
Summary of the method: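 Using broth microdilution, MIC endpoints (μg/mL) mark where visible growth no longer appears; the panel spans sensitive and control Gram-negative strains plus a Gram-positive strain.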

[2] = tested on: K. pneumoniae MXX1232; test: Antibacterial activity, MIC, resistant strain (Table 4); format: cell-based; details: Klebsiella pneumoniae, MXX1232; resistant K. pneumoniae MMX1232, multi-drug resistant clinical isolate; read-out: MIC, MMX1232
Summary of the method: (§1)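 Values are minimum inhibitory concentrations in μg/mL from broth microdilution, meaning no macroscopically visible growth at that concentration. Resistant MXX isolates are multi-drug resistant clinical strains.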

[3] = tested on: A. baumannii MXX2240; test: as above; format: cell-based; details: Acinetobacter baumannii, MXX2240; resistant A. baumannii MMX2240, multi-drug resistant clinical isolate; read-out: MIC, MMX2240
Summary of the method: as §1

[4] = tested on: E. coli LZ3111; test: Antibacterial activity, MIC, quinolone resistant strain (Table 2); format: cell-based; details: Escherichia coli, LZ3111, read-out: MIC LZ3111
Summary of the method: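 Strain carries mutations conferring high-level quinolone resistance; tested by microbroth dilution, MIC recorded in μg/mL as lowest concentration preventing visible growth.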

[5] = tested on: Acinetobacter baumannii (A. baumannii) BAA747; test: Antibacterial activity, MIC (Table 4); format: cell-based; details: A. baumannii BAA747, read-out: MIC, BAA747
Summary of the method: as §1

[6] = tested on: Klebsiella pneumoniae (K. pneumoniae) 35657; test: Antibacterial activity, MIC (Table 4); format: cell-based; details: K. pneumoniae 35657, read-out: MIC, 35657
Summary of the method: as §1

[7] = tested on: Staphylococcus aureus (S. aureus) 29213; test: Antibacterial activity, microbroth dilution MIC (Table 1); format: cell-based; details: microbroth dilution, Gram-positive S. aureus 29213, read-out: MIC, 29213
Summary of the method: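 Potency is reported as minimum inhibitory concentration in μg/mL, determined by broth microdilution as the lowest level of compound that stops growth visible to the eye.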

[8] = tested on: Escherichia coli (E. coli) BAS849; test: as above; format: cell-based; details: microbroth dilution, super sensitive Gram-negative E. coli BAS849, read-out: MIC, BAS849
Summary of the method: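 In a microbroth dilution test, the minimum inhibitory concentration was defined as the lowest compound level preventing growth seen by eye, and was given in μg/mL.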

[9] = tested on: Pseudomonas aeruginosa (P. aeruginosa) 27853; test: Antibacterial activity, MIC (Table 5); format: cell-based; details: P. aeruginosa 27853, read-out: MIC, 27853
Summary of the method: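 Compounds are serially diluted in broth and inoculated with the organism. Growth is then inspected macroscopically, and the lowest concentration showing none is taken as the MIC (μg/mL).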

`CCc1c(-c2ccc3cn[nH]c3c2)[nH]c(=O)c(C(=O)O)c1O` [Cpd 391, 5-ethyl-4-hydroxy-6-(1H-indazol-6-yl)-2-oxo-1,2-dihydropyridine-3-carboxylic acid] gave an MIC [1] of 12.5 to 150 µg/mL (≈ 41.8 to 501 µM), an MIC [2] of 12.5 to 150 µg/mL (≈ 41.8 to 501 µM) and an MIC [3] of 12.5 to 150 µg/mL (≈ 41.8 to 501 µM). For the same compound, the MIC [4] was 3.5 to 12.5 µg/mL (≈ 11.7 to 41.8 µM), the MIC [5] was 12.5 to 150 µg/mL (≈ 41.8 to 501 µM) and the MIC [6] was 3.5 to 12.5 µg/mL (≈ 11.7 to 41.8 µM). The MIC [7] was 12.5 to 150 µg/mL (≈ 41.8 to 501 µM), the MIC [8] was 3.5 to 12.5 µg/mL (≈ 11.7 to 41.8 µM) and the MIC [9] was 12.5 to 150 µg/mL (≈ 41.8 to 501 µM).
In the case of `CCCc1ccc2c(c1)cc(-c1[nH]c(=O)c(C(=O)O)c(O)c1CC)n2C` [Cpd 409, 5-ethyl-4-hydroxy-6-(1-methyl-5-propyl-1H-indol-2-yl)-2-oxo-1,2-dihydropyridine-3-carboxylic acid], the MIC [1] is reported as 12.5 to 150 µg/mL (≈ 35.3 to 423 µM), the MIC [2] is reported as 12.5 to 150 µg/mL (≈ 35.3 to 423 µM) and the MIC [3] is reported as 12.5 to 150 µg/mL (≈ 35.3 to 423 µM). For the same compound, the MIC [4] was 12.5 to 150 µg/mL (≈ 35.3 to 423 µM), the MIC [5] was 12.5 to 150 µg/mL (≈ 35.3 to 423 µM) and the MIC [6] was 12.5 to 150 µg/mL (≈ 35.3 to 423 µM). For the same compound, the MIC [7] was 3.5 to 12.5 µg/mL (≈ 9.88 to 35.3 µM), the MIC [8] was 1 to 3.5 µg/mL (≈ 2.82 to 9.88 µM) and the MIC [9] was 12.5 to 150 µg/mL (≈ 35.3 to 423 µM).
Work on `CCc1c(-c2ccc3c(ccn3C)c2OCc2ccccc2)[nH]c(=O)c(C(=O)O)c1O` [Cpd 373, 6-(4-(benzyloxy)-1-methyl-1H-indol-5-yl)-5-ethyl-4-hydroxy-2-oxo-1,2-dihydropyridine-3-carboxylic acid] yielded an MIC [1] of 12.5 to 150 µg/mL (≈ 29.9 to 358 µM), an MIC [2] of 12.5 to 150 µg/mL (≈ 29.9 to 358 µM) and an MIC [3] of 12.5 to 150 µg/mL (≈ 29.9 to 358 µM). It also gave an MIC [4] of 12.5 to 150 µg/mL (≈ 29.9 to 358 µM), an MIC [5] of 12.5 to 150 µg/mL (≈ 29.9 to 358 µM) and an MIC [6] of 12.5 to 150 µg/mL (≈ 29.9 to 358 µM). The MIC [7] was 1 to 3.5 µg/mL (≈ 2.39 to 8.36 µM), the MIC [8] was 3.5 to 12.5 µg/mL (≈ 8.36 to 29.9 µM) and the MIC [9] was 12.5 to 150 µg/mL (≈ 29.9 to 358 µM).
`CCc1c(-c2ccc3c(c2)c(F)c(CNC(C)(C)C)n3C)[nH]c(=O)c(C(=O)O)c1O` [Cpd 371, 6-(2-((tert-butylamino)methyl)-3-fluoro-1-methyl-1H-indol-5-yl)-5-ethyl-4-hydroxy-2-oxo-1,2-dihydropyridine-3-carboxylic acid] was tested, and the MIC [1] was 1 to 3.5 µg/mL (≈ 2.41 to 8.42 µM), the MIC [2] was 12.5 to 150 µg/mL (≈ 30.1 to 361 µM) and the MIC [3] was 3.5 to 12.5 µg/mL (≈ 8.42 to 30.1 µM). The MIC [4] was 12.5 to 150 µg/mL (≈ 30.1 to 361 µM), the MIC [5] was 3.5 to 12.5 µg/mL (≈ 8.42 to 30.1 µM) and the MIC [6] was 1 to 3.5 µg/mL (≈ 2.41 to 8.42 µM). The MIC [7] was 12.5 to 150 µg/mL (≈ 30.1 to 361 µM), the MIC [8] was < 1 µg/mL and the MIC [9] was 12.5 to 150 µg/mL (≈ 30.1 to 361 µM).
With `CCc1c(-c2cccc3c2ccn3C)[nH]c(=O)c(C(=O)O)c1O` [Cpd 403, 5-ethyl-4-hydroxy-6-(1-methyl-1H-indol-4-yl)-2-oxo-1,2-dihydropyridine-3-carboxylic acid] the MIC [1] was 12.5 to 150 µg/mL (≈ 40 to 480 µM), the MIC [2] was 12.5 to 150 µg/mL (≈ 40 to 480 µM) and the MIC [3] was 12.5 to 150 µg/mL (≈ 40 to 480 µM). For the same compound, the MIC [4] was 12.5 to 150 µg/mL (≈ 40 to 480 µM), the MIC [5] was 12.5 to 150 µg/mL (≈ 40 to 480 µM) and the MIC [6] was 12.5 to 150 µg/mL (≈ 40 to 480 µM). It also gave an MIC [7] of 12.5 to 150 µg/mL (≈ 40 to 480 µM), an MIC [8] of 3.5 to 12.5 µg/mL (≈ 11.2 to 40 µM) and an MIC [9] of 12.5 to 150 µg/mL (≈ 40 to 480 µM).
`CCc1c(-c2ccc3c(c2)cc2n3CC(N(C)C)C2)[nH]c(=O)c(C(=O)O)c1O.Cl` (stereo not drawn) [Cpd 418, 6-(2-(dimethylamino)-2,3-dihydro-1H-pyrrolo[1,2-a]indol-7-yl)-5-ethyl-4-hydroxy-2-oxo-1,2-dihydropyridine-3-carboxylic acid hydrochloride] showed an MIC [1] of 3.5 to 12.5 µg/mL, an MIC [2] of 12.5 to 150 µg/mL and an MIC [3] of 3.5 to 12.5 µg/mL. The MIC [4] was < 1 µg/mL, the MIC [5] was 3.5 to 12.5 µg/mL and the MIC [6] was 3.5 to 12.5 µg/mL. For the same compound, the MIC [7] was 12.5 to 150 µg/mL, the MIC [8] was 3.5 to 12.5 µg/mL and the MIC [9] was 12.5 to 150 µg/mL.
In the case of `CCc1c(-c2cc3c(N4CCCC4)nc(C)cn3n2)[nH]c(=O)c(C(=O)O)c1O` [Cpd 402, 5-ethyl-4-hydroxy-6-(6-methyl-4-(pyrrolidin-1-yl)pyrazolo[1,5-a]pyrazin-2-yl)-2-oxo-1,2-dihydropyridine-3-carboxylic acid], the MIC [1] is reported as 12.5 to 150 µg/mL (≈ 32.6 to 391 µM), the MIC [2] is reported as 12.5 to 150 µg/mL (≈ 32.6 to 391 µM) and the MIC [3] is reported as 12.5 to 150 µg/mL (≈ 32.6 to 391 µM). It also gave an MIC [4] of 12.5 to 150 µg/mL (≈ 32.6 to 391 µM), an MIC [5] of 12.5 to 150 µg/mL (≈ 32.6 to 391 µM) and an MIC [6] of 12.5 to 150 µg/mL (≈ 32.6 to 391 µM). It also gave an MIC [7] of 3.5 to 12.5 µg/mL (≈ 9.13 to 32.6 µM), an MIC [8] of 12.5 to 150 µg/mL (≈ 32.6 to 391 µM) and an MIC [9] of 12.5 to 150 µg/mL (≈ 32.6 to 391 µM).
Compound `CCOc1c(-c2ccc3c(ccn3C)c2)[nH]c(=O)c(C(=O)O)c1O` [Cpd 378, 4-hydroxy-5-ethoxy-6-(1-methyl-1H-indol-5-yl)-2-oxo-1,2-dihydropyridine-3-carboxylic acid] has an MIC [1] of 12.5 to 150 µg/mL (≈ 38.1 to 457 µM), an MIC [2] of 12.5 to 150 µg/mL (≈ 38.1 to 457 µM) and an MIC [3] of 3.5 to 12.5 µg/mL (≈ 10.7 to 38.1 µM). For the same compound, the MIC [4] was 3.5 to 12.5 µg/mL (≈ 10.7 to 38.1 µM), the MIC [5] was 12.5 to 150 µg/mL (≈ 38.1 to 457 µM) and the MIC [6] was 12.5 to 150 µg/mL (≈ 38.1 to 457 µM). It also gave an MIC [7] of 12.5 to 150 µg/mL (≈ 38.1 to 457 µM), an MIC [8] of 3.5 to 12.5 µg/mL (≈ 10.7 to 38.1 µM) and an MIC [9] of 12.5 to 150 µg/mL (≈ 38.1 to 457 µM).
